The source of these data is patent publication US20240116946A1 (Gilead Sciences, Inc., priority 2022, published 2024).

Assay [1] concerns the target recombinant SARS-CoV-2 Main protease (Mpro) (Severe acute respiratory syndrome coronavirus 2 (2019-nCoV) (SARS-CoV-2), UniProt P0DTD1). As to the kind of experiment: Cov Mpro Biochemical IC50 Assay. The settings on record: read-out: MPro IC50.
A further assay relates to SARS-CoV-2-NLuc. In words: microbe, parasite or virus in culture. The assay is classed as cell-based, SARS Coronavirus 2.
The mark [2] stands for this setting: recombinant SARS-CoV-2 Mpro 7.5 nM, fluorogenic peptide substrate 40 μM.
The mark [3] stands for this setting: recombinant SARS-CoV-2 Mpro, fluorogenic peptide substrate.
Where [4] appears, read: Severe acute respiratory syndrome coronavirus, 48 h; read-out: MPro EC50.
Where [5] appears, read: Severe acute respiratory syndrome coronavirus, 48 h, read-out: MPro EC50.

SMILES strings stand for the structures. pEC50, pIC50: −log10 of the molar value. Read-outs that look alike come from different tables or passages of the source. Some results are limits rather than exact numbers.

By pIC50 is commonly meant the IC50 on a negative log10 scale, so that one unit is a factor of ten. For orientation: pEC50 means the EC50 on a negative log10 scale, so that one unit is a factor of ten. With `Cn1ncc2cncc(-n3c(=O)c4sc(-c5cc(F)c(F)cc5Cl)cc4n(CCC#N)c3=O)c21` (single isomer, unassigned) [Example 1077, 3-[6-(2-chloro-4,5-difluoro-phenyl)-3-(1-methylpyrazolo[4,3-c]pyridin-7-yl)-2,4-dioxo-thieno[3,2-d]pyrimidin-1-yl]propanenitrile], the pIC50 in assay [1] (setting [2]) is 6.31. Moreover, in the assay with SARS-CoV-2-NLuc (read-out: MPro EC50), the pEC50 was < 6.00.
Taken in the same sequence, the figures for `COc1cnc(Cl)c(-c2cc3c(s2)c(=O)n(-c2cncc4ccccc24)c(=O)n3CCC#N)c1` (single isomer, unassigned) [Example 1088, 3-(6-(2-chloro-5-methoxypyridin-3-yl)-3-(isoquinolin-4-yl)-2,4-dioxo-3,4-dihydrothieno[3,2-d]pyrimidin-1(2H)-yl)propanenitrile] were 8.78 and 8.49.
Taken in the same sequence, the figures for `COc1cnc(Cl)c(-c2cc3c(s2)c(=O)n(-c2cncc4ccccc24)c(=O)n3CCC#N)c1` (single isomer, unassigned) [Example 1089, 3-(6-(2-chloro-5-methoxypyridin-3-yl)-3-(isoquinolin-4-yl)-2,4-dioxo-3,4-dihydrothieno[3,2-d]pyrimidin-1(2H)-yl)propanenitrile] were < 6.00 and < 6.00.
In the same order, the values of `COc1cnc(Cl)c(-c2cc3c(s2)c(=O)n(-c2cncc4cnn(C)c24)c(=O)n3CCC#N)c1` (single isomer, unassigned) [Example 1090, 3-(6-(2-chloro-5-methoxypyridin-3-yl)-3-(1-methyl-1H-pyrazolo[4,3-c]pyridin-7-yl)-2,4-dioxo-3,4-dihydrothieno[3,2-d]pyrimidin-1(2H)-yl)propanenitrile] are 8.82 and 8.28.
As for `COc1cnc(Cl)c(-c2cc3c(s2)c(=O)n(-c2cncc4cnn(C)c24)c(=O)n3CCC#N)c1` (single isomer, unassigned) [Example 1091, 3-(6-(2-chloro-5-methoxypyridin-3-yl)-3-(1-methyl-1H-pyrazolo[4,3-c]pyridin-7-yl)-2,4-dioxo-3,4-dihydrothieno[3,2-d]pyrimidin-1(2H)-yl)propanenitrile], the pIC50 in assay [1] (setting [2]) was 6.85. Besides, the pEC50 with SARS-CoV-2-NLuc (read-out: MPro EC50) was 6.35.
In the same order, the values of `COc1cnc(C#N)c(-c2cc3c(s2)c(=O)n(-c2cncc4ccccc24)c(=O)n3CCC#N)c1` (single isomer, unassigned) [Example 1092, 3-(1-(2-cyanoethyl)-3-(isoquinolin-4-yl)-2,4-dioxo-1,2,3,4-tetrahydrothieno[3,2-d]pyrimidin-6-yl)-5-methoxypicolinonitrile] are 8.29 and 7.95.
In the same order, the values of `COc1cnc(C#N)c(-c2cc3c(s2)c(=O)n(-c2cncc4ccccc24)c(=O)n3CCC#N)c1` (single isomer, unassigned) [Example 1093, 3-(1-(2-cyanoethyl)-3-(isoquinolin-4-yl)-2,4-dioxo-1,2,3,4-tetrahydrothieno[3,2-d]pyrimidin-6-yl)-5-methoxypicolinonitrile] are 6.98 and 6.80.
Taken in the same sequence, the figures for `COc1cnc(Cl)c(-c2cc3c(s2)c(=O)n(-c2cncc4cccc(F)c24)c(=O)n3CCC#N)c1` (single isomer, unassigned) [Example 1094, 3-(6-(2-chloro-5-methoxypyridin-3-yl)-3-(5-fluoroisoquinolin-4-yl)-2,4-dioxo-3,4-dihydrothieno[3,2-d]pyrimidin-1(2H)-yl)propanenitrile] were 8.49 and 8.01.
Take `COc1cnc(Cl)c(-c2cc3c(s2)c(=O)n(-c2cncc4cccc(F)c24)c(=O)n3CCC#N)c1` (single isomer, unassigned) [Example 1095, 3-(6-(2-chloro-5-methoxypyridin-3-yl)-3-(5-fluoroisoquinolin-4-yl)-2,4-dioxo-3,4-dihydrothieno[3,2-d]pyrimidin-1(2H)-yl)propanenitrile]: in assay [1] (setting [2]), the pIC50 was 7.25. Besides, the pEC50 with SARS-CoV-2-NLuc (read-out: MPro EC50) is 6.91.
In the same order, the values of `COc1cc(-c2cc3c(s2)c(=O)n(-c2cncc4ccncc24)c(=O)n3CCC#N)c(Cl)cc1F` (single isomer, unassigned) [Example 1097, 3-[6-(2-chloro-4-fluoro-5-methoxy-phenyl)-3-(2,6-naphthyridin-4-yl)-2,4-dioxo-thieno[3,2-d]pyrimidin-1-yl]propanenitrile] are 7.37 and 7.48.
In the same order, the values of `COc1cc(-c2cc3c(s2)c(=O)n(-c2cncc4ccncc24)c(=O)n3CCC#N)c(Cl)cc1F` (single isomer, unassigned) [Example 1098, 3-[6-(2-chloro-4-fluoro-5-methoxy-phenyl)-3-(2,6-naphthyridin-4-yl)-2,4-dioxo-thieno[3,2-d]pyrimidin-1-yl]propanenitrile] are 8.42 and 8.72.
Regarding `O=c1[nH]c2cc(-c3ccccc3Cl)sc2c(=O)n1-c1cncc2ccccc12` [Example 1, 6-(2-chlorophenyl)-3-(isoquinolin-4-yl)thieno[3,2-d]pyrimidine-2,4(1H,3H)-dione], the pIC50 in assay [1] (setting [3]) was 7.97. For the same compound, the pEC50 in the assay with SARS-CoV-2-NLuc (setting [4]) is 7.54.
Regarding `O=c1[nH]c2cc(-c3ccccc3)sc2c(=O)n1-c1cncc2ccccc12` [Example 2], the pIC50 in assay [1] (setting [3]) was 6.57. In addition, the negative-log EC50 (pEC50) in the assay with SARS-CoV-2-NLuc (setting [5]) is 5.60.
Taken in the same sequence, the figures for `NC(=O)c1ccccc1-c1cc2[nH]c(=O)n(-c3cncc4ccccc34)c(=O)c2s1` [Example 3] were 6.51 and < 4.30.
In the same order, the values of `O=c1c2sc(-c3ccccc3Cl)cc2n(CC2CCCC2)c(=O)n1-c1cncc2ccccc12` [Example 4] are 6.10 and 6.05.
Taken in the same sequence, the figures for `O=c1[nH]c2cc(-c3cccnc3)sc2c(=O)n1-c1cncc2ccccc12` [Example 5] were 6.47 and 5.75.
Consider `Cc1ccccc1-c1cc2[nH]c(=O)n(-c3cncc4ccccc34)c(=O)c2s1` [Example 7], for which the pIC50 in assay [1] (setting [3]) was 7.61. The pEC50 in the assay on SARS-CoV-2-NLuc (setting [5]) was 6.96.
With `O=c1[nH]c2cc(-c3c(O)cccc3Cl)sc2c(=O)n1-c1cncc2ccccc12` [Example 8], the pIC50 in assay [1] (setting [3]) is 7.50. The pEC50 with SARS-CoV-2-NLuc (setting [5]) is 6.97.
Consider `O=c1[nH]c2cc(-c3ccccc3F)sc2c(=O)n1-c1cncc2ccccc12` [Example 9], for which, in assay [1] (setting [3]), the pIC50 is 6.80. Besides, in the assay on SARS-CoV-2-NLuc (setting [5]), the pEC50 is 6.53.
In the same order, the values of `Cn1cc2ccc(-c3cc4[nH]c(=O)n(-c5cncc6ccccc56)c(=O)c4s3)cc2n1` [Example 10] are 4.86 and 4.70.
Taken in the same sequence, the figures for `Cc1cccc(-c2cc3[nH]c(=O)n(-c4cncc5ccccc45)c(=O)c3s2)c1Cl` [Example 11] were 5.32 and 6.20.
Taken in the same sequence, the figures for `Cc1c(Cl)cccc1-c1cc2[nH]c(=O)n(-c3cncc4ccccc34)c(=O)c2s1` [Example 12] were 5.13 and 6.03.
As to `O=c1[nH]c2cc(-c3ccc(F)cc3Cl)sc2c(=O)n1-c1cncc2ccccc12` [Example 13], the pIC50 in assay [1] (setting [3]) is 7.77. Further, the pEC50 in the assay on SARS-CoV-2-NLuc (setting [5]) is 7.37.
Taken in the same sequence, the figures for `CC(C)Oc1cc(F)ccc1-c1cc2[nH]c(=O)n(-c3cncc4ccccc34)c(=O)c2s1` [Example 14] were 6.88 and 7.10.
Taken in the same sequence, the figures for `Cc1cc2ncnn2cc1-c1cc2[nH]c(=O)n(-c3cncc4ccccc34)c(=O)c2s1` [Example 15] were 5.40 and 4.60.
In the same order, the values of `O=c1[nH]c2cc(-c3ccccc3C3CC3)sc2c(=O)n1-c1cncc2ccccc12` [Example 16] are 6.78 and 6.74.
`COCc1ccccc1-c1cc2[nH]c(=O)n(-c3cncc4ccccc34)c(=O)c2s1` [Example 17]: the pIC50 in assay [1] (setting [3]) was 7.45. For the same compound, the pEC50 with SARS-CoV-2-NLuc (setting [5]) is 6.80.
Taken in the same sequence, the figures for `O=c1[nH]c2cc(-c3ccccc3OCc3ccccc3)sc2c(=O)n1-c1cncc2ccccc12` [Example 18] were 5.53 and 6.68.
In the same order, the values of `COc1cccc(Cl)c1-c1cc2[nH]c(=O)n(-c3cncc4ccccc34)c(=O)c2s1` [Example 19] are 7.53 and 7.22.
Consider `O=c1[nH]cc(-c2cc3[nH]c(=O)n(-c4cncc5ccccc45)c(=O)c3s2)c(=O)[nH]1` [Example 20], for which the pIC50 in assay [1] (setting [3]) was 5.06. Besides, the pEC50 with SARS-CoV-2-NLuc (setting [5]) was < 4.30.
`O=c1[nH]c2cc(-c3ccsc3Cl)sc2c(=O)n1-c1cncc2ccccc12` [Example 21]: the pIC50 in assay [1] (setting [3]) was 7.49. For the same compound, in the assay with SARS-CoV-2-NLuc (setting [5]), the pEC50 is 6.69.
In the same order, the values of `O=c1[nH]c2cc(-c3cccnc3Cl)sc2c(=O)n1-c1cncc2ccccc12` [Example 22] are 7.43 and 6.92.
In the same order, the values of `Cc1ncccc1-c1cc2[nH]c(=O)n(-c3cncc4ccccc34)c(=O)c2s1` [Example 23] are 6.59 and 6.10.
Regarding `O=c1[nH]c2cc(-c3ccccc3C(F)(F)F)ccc2c(=O)n1-c1cncc2ccccc12` [Example 24, 3-(isoquinolin-4-yl)-7-(2-(trifluoromethyl)phenyl)quinazoline-2,4(1H,3H)-dione], the pIC50 in assay [1] (setting [3]) is 5.56. Also, the pEC50 in the assay on SARS-CoV-2-NLuc (setting [4]) is 5.60.
With `O=c1[nH]c2cc(-c3ccccc3)ccc2c(=O)n1-c1cncc2ccccc12` [Example 25], the pIC50 in assay [1] (setting [3]) is 5.85. Moreover, the pEC50 in the assay with SARS-CoV-2-NLuc (setting [5]) was 5.30.
In the same order, the values of `O=c1[nH]c2cc(-c3cccc4ccccc34)ccc2c(=O)n1-c1cncc2ccccc12` [Example 26] are 4.40 and 4.32.
Taken in the same sequence, the figures for `Cc1cccc(C)c1-c1ccc2c(=O)n(-c3cncc4ccccc34)c(=O)[nH]c2c1` [Example 27] were 6.11 and 6.12.
`C#Cc1ccccc1-c1ccc2c(=O)n(-c3cncc4ccccc34)c(=O)[nH]c2c1` [Example 28]: the pIC50 in assay [1] (setting [3]) was 6.47. Besides, the pEC50 with SARS-CoV-2-NLuc (setting [5]) was 6.27.
